Measured values: the kinase profiling compilation of Christmann-Franck et al. (2016)

How the values were obtained:
Experiment in all cases: KINOMEscan competition binding
Conditions in all cases: compound 10.0 µM
CDK4 CCND1 (human) = CDK4 CCND1 (human) (UniProt P11802+P24385)
CDKL1 (human) = CDKL1 (human) (UniProt Q00532)
CDKL3 (human) = CDKL3 (human) (UniProt Q8IVW4)
CDKL5 (human) = CDKL5 (human) (UniProt O76039)
DDR1 (human) = DDR1 (human) (UniProt Q08345)
DSTYK (human) = DSTYK (human) (UniProt Q6XUX3)
DYRK2 (human) = DYRK2 (human) (UniProt Q92630)
EIF2AK1 (human) = EIF2AK1 (human) (UniProt Q9BQI3)
EPHB6 (human) = EPHB6 (human) (UniProt O15197)
ERBB3 (human) = ERBB3 (human) (UniProt P21860)
ERN1 (human) = ERN1 (human) (UniProt O75460)
[1] = test system: FLT3 (human), P36888 [K663Q]
HIPK3 (human) = HIPK3 (human) (UniProt Q9H422)
HIPK4 (human) = HIPK4 (human) (UniProt Q8NE63)
HUNK (human) = HUNK (human) (UniProt P57058)
ICK (human) = ICK (human) (UniProt Q9UPZ9)
IRAK1 (human) = IRAK1 (human) (UniProt P51617)
LRRK2 (human) = LRRK2 (human) (UniProt Q5S007)
MAK (human) = MAK (human) (UniProt P20794)
MAP2K5 (human) = MAP2K5 (human) (UniProt Q13163)
MATK (human) = MATK (human) (UniProt P42679)
NEK11 (human) = NEK11 (human) (UniProt Q8NG66)
NEK3 (human) = NEK3 (human) (UniProt P51956)
NEK4 (human) = NEK4 (human) (UniProt P51957)
OXSR1 (human) = OXSR1 (human) (UniProt O95747)
PI4KB (human) = PI4KB (human) (UniProt Q9UBF8)
PIK3CA (human) = PIK3CA (human) (UniProt P42336)
[2] = test system: PIK3CA (human), P42336 [E545A]
[3] = test system: PIK3CA (human), P42336 [E545K]
PIP5K1C (human) = PIP5K1C (human) (UniProt O60331)
PKN3 (M.tuberculosis) = PKN3 (M.tuberculosis) (UniProt Q6P5Z2)
PRPF4B (human) = PRPF4B (human) (UniProt Q13523)
ROCK1 (human) = ROCK1 (human) (UniProt Q13464)
RPS6KB1 (human) = RPS6KB1 (human) (UniProt P23443)
SBK1 (human) = SBK1 (human) (UniProt Q52WX2)
STK32A (human) = STK32A (human) (UniProt Q8WU08)
STK38 (human) = STK38 (human) (UniProt Q15208)
TBK1 (human) = TBK1 (human) (UniProt Q9UHD2)
TIE1 (human) = TIE1 (human) (UniProt P35590)
TRPM6 (human) = TRPM6 (human) (UniProt Q9BX84)

Sequence of HIPK4 (human) (Q8NE63 whole entry, looked up): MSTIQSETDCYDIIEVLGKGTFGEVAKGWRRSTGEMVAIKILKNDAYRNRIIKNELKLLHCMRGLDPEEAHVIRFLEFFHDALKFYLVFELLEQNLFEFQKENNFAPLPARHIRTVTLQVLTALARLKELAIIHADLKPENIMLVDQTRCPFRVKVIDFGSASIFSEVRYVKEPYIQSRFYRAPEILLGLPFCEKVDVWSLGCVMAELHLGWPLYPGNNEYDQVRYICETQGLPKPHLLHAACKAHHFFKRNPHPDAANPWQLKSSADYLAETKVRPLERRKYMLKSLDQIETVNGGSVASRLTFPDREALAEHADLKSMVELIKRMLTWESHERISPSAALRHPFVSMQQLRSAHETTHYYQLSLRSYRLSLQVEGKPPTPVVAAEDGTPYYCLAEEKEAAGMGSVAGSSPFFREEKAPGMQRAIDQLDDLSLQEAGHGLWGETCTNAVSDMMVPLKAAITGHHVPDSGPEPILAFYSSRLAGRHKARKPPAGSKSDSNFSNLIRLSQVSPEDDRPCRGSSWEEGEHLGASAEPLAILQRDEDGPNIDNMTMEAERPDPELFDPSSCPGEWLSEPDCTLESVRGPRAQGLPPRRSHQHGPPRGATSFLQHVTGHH
Sequence of PRPF4B (human) (Q13523 whole entry, looked up): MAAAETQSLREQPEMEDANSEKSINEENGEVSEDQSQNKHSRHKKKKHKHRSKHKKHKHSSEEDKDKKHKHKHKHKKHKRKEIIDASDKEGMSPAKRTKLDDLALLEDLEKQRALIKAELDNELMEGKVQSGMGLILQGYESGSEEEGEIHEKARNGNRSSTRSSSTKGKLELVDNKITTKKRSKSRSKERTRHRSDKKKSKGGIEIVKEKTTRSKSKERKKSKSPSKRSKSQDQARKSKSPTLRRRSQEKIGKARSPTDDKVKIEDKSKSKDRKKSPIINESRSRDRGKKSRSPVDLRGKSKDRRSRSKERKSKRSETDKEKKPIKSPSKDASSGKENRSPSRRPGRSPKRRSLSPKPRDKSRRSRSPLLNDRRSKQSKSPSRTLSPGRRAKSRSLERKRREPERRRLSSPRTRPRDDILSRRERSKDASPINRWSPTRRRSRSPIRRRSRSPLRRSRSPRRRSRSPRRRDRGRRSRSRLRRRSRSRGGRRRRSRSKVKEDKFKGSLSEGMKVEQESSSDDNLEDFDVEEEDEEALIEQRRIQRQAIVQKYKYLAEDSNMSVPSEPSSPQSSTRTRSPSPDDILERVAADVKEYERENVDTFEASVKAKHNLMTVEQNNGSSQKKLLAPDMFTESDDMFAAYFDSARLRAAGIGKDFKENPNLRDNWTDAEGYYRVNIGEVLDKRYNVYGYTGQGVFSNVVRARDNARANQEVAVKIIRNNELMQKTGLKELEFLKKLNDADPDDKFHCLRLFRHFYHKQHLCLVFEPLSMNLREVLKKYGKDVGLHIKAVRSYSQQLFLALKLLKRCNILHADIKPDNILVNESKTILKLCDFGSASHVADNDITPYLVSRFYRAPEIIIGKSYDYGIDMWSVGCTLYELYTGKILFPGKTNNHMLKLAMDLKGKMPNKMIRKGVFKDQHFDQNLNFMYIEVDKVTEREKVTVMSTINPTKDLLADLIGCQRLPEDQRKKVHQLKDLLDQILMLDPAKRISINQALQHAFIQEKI
Sequence of STK32A (human) (Q8WU08 whole entry, looked up): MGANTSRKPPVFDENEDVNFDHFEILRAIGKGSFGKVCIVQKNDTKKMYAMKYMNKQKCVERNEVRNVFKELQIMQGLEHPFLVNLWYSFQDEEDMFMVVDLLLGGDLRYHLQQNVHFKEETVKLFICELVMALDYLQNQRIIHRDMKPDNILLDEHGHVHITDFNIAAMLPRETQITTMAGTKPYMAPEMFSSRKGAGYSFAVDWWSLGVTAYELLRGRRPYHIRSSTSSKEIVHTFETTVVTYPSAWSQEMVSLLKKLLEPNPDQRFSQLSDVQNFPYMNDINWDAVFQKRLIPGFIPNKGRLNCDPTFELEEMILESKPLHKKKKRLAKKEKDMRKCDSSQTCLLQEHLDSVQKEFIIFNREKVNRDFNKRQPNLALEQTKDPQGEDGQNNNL
Sequence of ERN1 (human) (O75460 whole entry, looked up): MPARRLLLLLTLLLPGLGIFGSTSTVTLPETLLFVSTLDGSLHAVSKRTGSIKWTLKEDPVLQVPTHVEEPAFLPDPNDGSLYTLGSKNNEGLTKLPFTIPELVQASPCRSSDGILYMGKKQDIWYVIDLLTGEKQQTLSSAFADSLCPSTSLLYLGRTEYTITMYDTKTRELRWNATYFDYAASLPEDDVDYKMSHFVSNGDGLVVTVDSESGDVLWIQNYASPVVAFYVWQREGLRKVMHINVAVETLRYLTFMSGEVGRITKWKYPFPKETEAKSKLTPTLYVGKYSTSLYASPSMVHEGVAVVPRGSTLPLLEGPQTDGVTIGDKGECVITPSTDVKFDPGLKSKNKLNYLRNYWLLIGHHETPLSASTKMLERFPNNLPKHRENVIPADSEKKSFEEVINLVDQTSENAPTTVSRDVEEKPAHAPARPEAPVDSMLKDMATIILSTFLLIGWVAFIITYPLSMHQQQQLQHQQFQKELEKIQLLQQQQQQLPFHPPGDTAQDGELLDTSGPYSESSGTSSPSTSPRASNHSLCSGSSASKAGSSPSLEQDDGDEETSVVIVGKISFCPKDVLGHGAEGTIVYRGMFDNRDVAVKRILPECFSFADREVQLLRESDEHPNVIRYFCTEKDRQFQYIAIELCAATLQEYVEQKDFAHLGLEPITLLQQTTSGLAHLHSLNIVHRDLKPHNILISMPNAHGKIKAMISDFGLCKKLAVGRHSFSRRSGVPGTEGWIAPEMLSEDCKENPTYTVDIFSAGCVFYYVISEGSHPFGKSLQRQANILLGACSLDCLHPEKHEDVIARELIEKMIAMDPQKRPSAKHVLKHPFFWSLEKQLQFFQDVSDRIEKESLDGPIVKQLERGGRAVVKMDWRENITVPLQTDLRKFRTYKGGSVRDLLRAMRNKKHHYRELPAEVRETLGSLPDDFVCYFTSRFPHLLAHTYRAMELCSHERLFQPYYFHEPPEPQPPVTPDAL
Sequence of OXSR1 (human) (O95747 whole entry, looked up): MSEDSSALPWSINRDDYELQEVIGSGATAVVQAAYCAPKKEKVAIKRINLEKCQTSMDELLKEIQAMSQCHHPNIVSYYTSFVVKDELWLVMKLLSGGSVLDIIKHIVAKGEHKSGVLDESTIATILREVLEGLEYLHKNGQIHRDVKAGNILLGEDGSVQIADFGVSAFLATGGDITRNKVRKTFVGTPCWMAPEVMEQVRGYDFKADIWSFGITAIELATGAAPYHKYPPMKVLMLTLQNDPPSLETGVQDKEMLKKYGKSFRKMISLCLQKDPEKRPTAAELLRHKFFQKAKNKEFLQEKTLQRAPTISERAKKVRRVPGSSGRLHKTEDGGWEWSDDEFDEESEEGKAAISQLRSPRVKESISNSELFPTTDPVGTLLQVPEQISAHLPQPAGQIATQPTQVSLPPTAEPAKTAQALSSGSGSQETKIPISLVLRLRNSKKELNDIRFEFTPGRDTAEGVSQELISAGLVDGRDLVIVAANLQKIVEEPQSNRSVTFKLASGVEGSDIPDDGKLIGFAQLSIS
Sequence of NEK4 (human) (P51957 whole entry, looked up): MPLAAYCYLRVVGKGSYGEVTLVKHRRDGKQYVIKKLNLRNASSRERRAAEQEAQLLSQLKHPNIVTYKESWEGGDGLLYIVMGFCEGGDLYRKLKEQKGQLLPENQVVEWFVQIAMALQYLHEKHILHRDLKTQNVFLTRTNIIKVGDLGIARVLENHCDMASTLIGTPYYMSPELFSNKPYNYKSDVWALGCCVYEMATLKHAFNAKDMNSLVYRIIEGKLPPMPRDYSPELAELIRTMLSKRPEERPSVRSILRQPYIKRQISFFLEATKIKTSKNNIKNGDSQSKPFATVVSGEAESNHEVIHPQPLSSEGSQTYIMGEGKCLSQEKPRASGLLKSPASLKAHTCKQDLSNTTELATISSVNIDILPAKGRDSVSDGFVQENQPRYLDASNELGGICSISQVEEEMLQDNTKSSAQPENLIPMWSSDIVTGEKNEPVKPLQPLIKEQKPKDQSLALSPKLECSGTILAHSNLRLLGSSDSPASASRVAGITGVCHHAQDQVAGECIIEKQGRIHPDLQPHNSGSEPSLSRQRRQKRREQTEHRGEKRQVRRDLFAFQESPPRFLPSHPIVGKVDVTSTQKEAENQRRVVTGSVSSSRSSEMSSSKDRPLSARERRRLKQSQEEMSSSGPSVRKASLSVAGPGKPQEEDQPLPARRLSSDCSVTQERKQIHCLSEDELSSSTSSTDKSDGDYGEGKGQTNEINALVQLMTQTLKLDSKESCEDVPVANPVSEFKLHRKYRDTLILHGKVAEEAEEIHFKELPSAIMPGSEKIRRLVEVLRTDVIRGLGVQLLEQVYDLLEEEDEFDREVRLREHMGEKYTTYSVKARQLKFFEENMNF
Sequence of ICK (human) (Q9UPZ9 whole entry, looked up): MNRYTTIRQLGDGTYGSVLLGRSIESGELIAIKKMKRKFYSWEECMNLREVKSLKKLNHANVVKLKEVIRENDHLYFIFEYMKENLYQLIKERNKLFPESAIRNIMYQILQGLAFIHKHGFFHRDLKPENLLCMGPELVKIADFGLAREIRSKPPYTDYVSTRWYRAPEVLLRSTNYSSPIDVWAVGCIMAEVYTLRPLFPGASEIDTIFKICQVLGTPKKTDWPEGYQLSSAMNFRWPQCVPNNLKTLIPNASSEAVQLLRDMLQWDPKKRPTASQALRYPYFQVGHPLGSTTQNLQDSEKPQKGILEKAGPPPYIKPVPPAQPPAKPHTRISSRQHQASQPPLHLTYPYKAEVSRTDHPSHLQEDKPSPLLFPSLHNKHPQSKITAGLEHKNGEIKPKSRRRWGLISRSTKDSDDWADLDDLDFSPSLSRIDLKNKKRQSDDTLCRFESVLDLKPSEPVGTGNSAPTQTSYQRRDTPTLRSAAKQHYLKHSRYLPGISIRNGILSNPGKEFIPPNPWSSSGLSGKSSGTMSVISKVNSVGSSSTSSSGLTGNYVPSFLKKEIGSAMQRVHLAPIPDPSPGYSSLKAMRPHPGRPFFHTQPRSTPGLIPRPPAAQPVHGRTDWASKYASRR

Row | SMILES | kinase still bound, per cent of control (CDK4 CCND1 (human)) [%] | kinase still bound, per cent of control (CDKL1 (human)) [%] | kinase still bound, per cent of control (CDKL3 (human)) [%] | kinase still bound, per cent of control (CDKL5 (human)) [%] | kinase still bound, per cent of control (DDR1 (human)) [%] | kinase still bound, per cent of control (DSTYK (human)) [%] | kinase still bound, per cent of control (DYRK2 (human)) [%] | kinase still bound, per cent of control (EIF2AK1 (human)) [%] | kinase still bound, per cent of control (EPHB6 (human)) [%] | kinase still bound, per cent of control (ERBB3 (human)) [%] | kinase still bound, per cent of control (ERN1 (human)) [%] | kinase still bound, per cent of control [1] [%] | kinase still bound, per cent of control (HIPK3 (human)) [%] | kinase still bound, per cent of control (HIPK4 (human)) [%] | kinase still bound, per cent of control (HUNK (human)) [%] | kinase still bound, per cent of control (ICK (human)) [%] | kinase still bound, per cent of control (IRAK1 (human)) [%] | kinase still bound, per cent of control (LRRK2 (human)) [%] | kinase still bound, per cent of control (MAK (human)) [%] | kinase still bound, per cent of control (MAP2K5 (human)) [%] | also measured
1 | O=C(NC1CC1)c1cccc(-c2ccc3c(NC(=O)C4CC4)n[nH]c3c2)c1 | 94 | 58 | 55 | 42 | 71 | 71 | 36 | 100 | 1.4 | 69 | 100 | 61 | 62 | 40 | 64 | 13 | 82 | 100 | 51 | 5 | kinase still bound, per cent of control (MATK (human)): 68%; kinase still bound, per cent of control (NEK11 (human)): 95%; kinase still bound, per cent of control (NEK3 (human)): 75%; kinase still bound, per cent of control (NEK4 (human)): 100%; kinase still bound, per cent of control (OXSR1 (human)): 98%; kinase still bound, per cent of control (PI4KB (human)): 84%; kinase still bound, per cent of control (PIK3CA (human)): 99%; kinase still bound, per cent of control [2]: 93%; kinase still bound, per cent of control [3]: 95%; kinase still bound, per cent of control (PIP5K1C (human)): 12%; kinase still bound, per cent of control (PKN3 (M.tuberculosis)): 15%; kinase still bound, per cent of control (PRPF4B (human)): 53%; kinase still bound, per cent of control (ROCK1 (human)): 57%; kinase still bound, per cent of control (RPS6KB1 (human)): 100%; kinase still bound, per cent of control (SBK1 (human)): 100%; kinase still bound, per cent of control (STK32A (human)): 78%; kinase still bound, per cent of control (STK38 (human)): 85%; kinase still bound, per cent of control (TBK1 (human)): 61%; kinase still bound, per cent of control (TIE1 (human)): 31%; kinase still bound, per cent of control (TRPM6 (human)): 100%
2 | O=C1Nc2ccc(I)cc2/C1=C/c1cc(Br)c(O)c(Br)c1 | 65 | 84 | 88 | 92 | 85 | 66 | 54 | 57 | 24 | 87 | 57 | 11 | 8 | 21 | 2.8 | 88 | 100 | 11 | 100 | 56 | kinase still bound, per cent of control (MATK (human)): 100%; kinase still bound, per cent of control (NEK11 (human)): 100%; kinase still bound, per cent of control (NEK3 (human)): 95%; kinase still bound, per cent of control (NEK4 (human)): 93%; kinase still bound, per cent of control (OXSR1 (human)): 100%; kinase still bound, per cent of control (PI4KB (human)): 0.5%; kinase still bound, per cent of control (PIK3CA (human)): 85%; kinase still bound, per cent of control [2]: 86%; kinase still bound, per cent of control [3]: 100%; kinase still bound, per cent of control (PIP5K1C (human)): 19%; kinase still bound, per cent of control (PKN3 (M.tuberculosis)): 64%; kinase still bound, per cent of control (PRPF4B (human)): 50%; kinase still bound, per cent of control (ROCK1 (human)): 80%; kinase still bound, per cent of control (RPS6KB1 (human)): 81%; kinase still bound, per cent of control (SBK1 (human)): 85%; kinase still bound, per cent of control (STK32A (human)): 91%; kinase still bound, per cent of control (STK38 (human)): 64%; kinase still bound, per cent of control (TBK1 (human)): 95%; kinase still bound, per cent of control (TIE1 (human)): 86%; kinase still bound, per cent of control (TRPM6 (human)): 100%
